Laboratory results published in ChEMBL document CHEMBL3352731, “Evaluation of gambierol and its analogs for their inhibition of human Kv1.2 and cytotoxicity” (Bioorg Med Chem Lett, 2015).

What was measured:
CHO [1] = test: Cytotoxicity against CHO cells transfected with human Kv 1.2 assessed as growth inhibition after 72 hrs by WST-8 assay; type: cell-based; conditions: Cricetulus griseus
CHO [2] = test: Cytotoxicity against wild-type CHO cells assessed as growth inhibition after 72 hrs by WST-8 assay; type: cell-based; conditions: Cricetulus griseus
CHO [3] = test: Induction of leak current in wild-type CHO cells by electrophysiology method; type: cell-based, Cricetulus griseus; conditions: chinese hamster
[4] = target: Potassium voltage-gated channel subfamily A member 2 (Homo sapiens) (UniProt P16389); test: Inhibition of human Kv 1.2 stably expressed in CHO cells by whole cell patch clamp method; type: cell-based
Sequence of Potassium voltage-gated channel subfamily A member 2 (Homo sapiens) (P16389 whole entry): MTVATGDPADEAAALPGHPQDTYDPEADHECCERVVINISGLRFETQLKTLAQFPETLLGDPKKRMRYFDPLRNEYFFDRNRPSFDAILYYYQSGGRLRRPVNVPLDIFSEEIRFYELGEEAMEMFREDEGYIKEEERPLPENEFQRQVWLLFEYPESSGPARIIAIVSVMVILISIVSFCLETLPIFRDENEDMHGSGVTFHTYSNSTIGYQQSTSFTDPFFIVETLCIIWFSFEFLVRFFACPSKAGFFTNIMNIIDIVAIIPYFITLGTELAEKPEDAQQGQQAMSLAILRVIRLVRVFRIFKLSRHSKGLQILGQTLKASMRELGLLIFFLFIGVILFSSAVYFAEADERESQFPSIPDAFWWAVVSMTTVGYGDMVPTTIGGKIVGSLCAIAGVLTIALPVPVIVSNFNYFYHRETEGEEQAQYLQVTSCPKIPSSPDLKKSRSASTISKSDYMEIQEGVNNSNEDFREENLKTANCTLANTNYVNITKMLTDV

SMILES | IC50 (CHO [1]) | IC50 (CHO [2]) | Activity (CHO [3]) | inhibition [4]
C=CC/C=C\C=C/[C@H]1O[C@H]2C[C@H]3O[C@H]4CCCCO[C@]4(C)C[C@]3(C)O[C@@H]2C=C[C@]1(C)O | > 100 µM | > 100 µM | – | –
C=CC/C=C\C=C/[C@H]1O[C@H]2C[C@H]3O[C@H]4CC[C@H]5O[C@H]6C[C@@]7(C)O[C@@]8(C)[C@@H](O)C[C@H](CCCO)O[C@@H]8C[C@@H]7O[C@@H]6C[C@@H]5O[C@]4(C)C[C@]3(C)O[C@@H]2C=C[C@]1(C)O | 95 µM | 78 µM | Dose-dependent effect | Dose-dependent effect
C=CC/C=C\C=C/[C@H]1O[C@H]2C[C@H]3O[C@H]4CC[C@H]5O[C@H]6C[C@@]7(C)OCCC[C@@H]7O[C@@H]6C[C@@H]5O[C@]4(C)C[C@]3(C)O[C@@H]2C=C[C@]1(C)O | 6.5 µM | 6 µM | – | –
